Results on 3 compounds are retold here after patent publication US11524950B2, “Treatment of immune-related and inflammatory diseases” (Celgene Corporation, priority 2012, dated 2022).

The subject of assay [1] is Human umbilical vascular endothelial cells. The assay is described as follows: Human umbilical vascular endothelial cells proliferation assay. The settings on record: for IC50: Homo sapiens, Endothelial cell. The assay is classed as cell-based. As to the method: Human Umbilical Vascular Endothelial Cells Proliferation Assay: Human umbilical vascular endothelial cells were thawed and grown in EGM2 medium until passage 3 to 6 for all proliferation assays. Human umbilical vascular endothelial cells were trypsinized, washed with 20% FBS/M199 medium and plated with the same medium at 10^4 cells/100 μL per well to 96-well cell culture plates. The plates were incubated overnight at 37° C. to allow cells to adhere. The cells were then starved in 1% FBS/M199 medium for 18 hours after washing with the same medium 3 times. For optimization of the concentration of the growth factors in the HUVEC proliferation assay, 100 μL/well of the 2× serial diluted growth factors, starting at 100 ng/mL, were added to HUVECs in duplicate for 72 hours at 37° C. in a humidified cell culture incubator with 5% CO2. For analysis of test compounds, a serial dilution of the test compounds in 0.4% DMSO/1% FBS/M199 medium in duplicate was made from the 10 mM stock. Fifty microliters per well of the serially diluted test compounds (10, 1.0, 0.1, 0.01, 0.001, 0.0001, 0.00001 μM) were added to the cells for 1 to 2 hours at 37° C. The final DMSO concentration in the cells is 0.1%. Then 50 μL of 4× final concentration of relative growth factors was added to each well in duplicate for 72 hours at 37° C. in a humidified cell culture incubator with 5% CO2. Thymidine incorporation was measured by adding one microcurie of 3H-thymidine (Amersham) in 20 μL medium to each well and incubated at 37° C. in a humidified cell culture incubator with 5% CO2 for 5 to 6 hours. The cells were then trypsinized and harvested onto UniFilter GF/C filter plates (Perkin Elmer) by using the cell harvester (Tomtec). After the plates were air dried, 20 µL/well of Microscint 20 (Packard) was added then the plates were analyzed in TopCount NXT (Packard). Each well was counted for one minute. The experiments were performed in duplicate in each of 3 donors.
The percentage inhibition of cell proliferation, tube formation, migration, and invasion was calculated by subtracting the result for unstimulated DMSO control from test sample results, averaging all replicates, and normalizing to the growth factor-stimulated DMSO control (0% inhibition). The IC50 values were calculated by using GraphPad Prism 5.0.

A further assay deals with IL-10. The assay is described as follows: LPS-stimulated hPBMC cytokine production: IL-10 enhancement. Format: cell-based, human. The settings on record: at 0.1 μM. The procedure:
(§1) 50 ml human buffy coat was aliquoted 25 ml each into two 50 ml conical tubes and 25 ml sterile HBSS was added to each conical tube. The tubes were gently mixed by inverting. Fifteen ml of room temperature Ficoll-Paque Plus (GE Healthcare (location); cat #17-1440-02) was aliquoted into four 50 ml conical tubes. Then 25 ml of the Buffy coat/HBSS mixture was layered gently and slowly on top of the Ficoll. The samples were centrifuged at 450 rpm for 35 minutes. The top layered containing plasma was pipetted off and discarded. The interface containing mononuclear cells was transferred into two 50 ml conical tubes. Both conical tubes were filled to total volume of 50 ml with HBSS and centrifuged at 1200 rpm for 10 minutes. The cells were washed again in HBSS and spun at 1000 rpm for 10 minutes. Cell pellet was resuspended with 20 ml RPMI complete medium (RPMI/5% human sera/1× pen/strep/glut) and counted.
(§2) One hundred μl (2×10^6/ml) of hPBMCs were added to each well of a 96 well flat-bottom plate (final cell count=2×10^5/well) and incubated at 37° C. for 1 hour. […] compound was added to each test well and twenty μl medium containing 2.5% DMSO was added to each control well ([DMSO]final=0.25%) and plate was incubated for 1 hour at 37° C. Cells were then stimulated with […] 2.5 ng/ml LPS ([LPS]final=1 ng/ml) and incubated for 18 hours at 37° C.
(§3) 50 μl supernatant from each well was transferred into 3 new round-bottomed 96 well plates and stored at −20° C. for Luminex analysis. Duplicate wells were performed for each sample.
(§4) Supernatant samples were analyzed for cytokines in multiplex format according to the manufacturer's instructions (Millipore, Billerica, Ma 01821) using a Luminex IS100 instrument. IL-12 and GM-CSF analyses were done in a two-plex format using neat supernatants while all other cytokines were done in a multiplex format using supernatants diluted 1:20. Data analysis was performed using Upstate Beadview software. […] The IC50 were performed using GraphPad Prism v5.00. […]

Another assay concerns IL-1β. Nature of the assay: LPS-stimulated hPBMC cytokine production: IL-1β. The assay is classed as cell-based. Particulars: Homo sapiens; LPS 1 ng/ml, 18 hours. The procedure: as §1, §2, §3, §4
The subject of the next assay is MDC. Nature of the assay: LPS-stimulated hPBMC cytokine production: MDC. The assay is classed as cell-based. The settings on record: Homo sapiens; LPS 1 ng/ml, 18 hours. The procedure:
as §1, §2, §3, §4

A further assay deals with MIP-1β. Nature of the assay: LPS-stimulated hPBMC cytokine production: MIP-1β. The assay is classed as cell-based. The settings on record: Homo sapiens; LPS 1 ng/ml, 18 hours. As to the method: as §1, with “Fifteen ml of room temperature Ficoll-Paque Plus (GE Healthcare (location); cat #17-1440-02) was aliquoted into four 50 ml conical tubes.” left out
Cells were then stimulated with […] 2.5 ng/ml LPS ([LPS]final=1 ng/ml) and incubated for 18 hours at 37° C.
as §3
IL-12 and GM-CSF analyses were done in a two-plex format using neat supernatants while all other cytokines were done in a multiplex format using supernatants diluted 1:20. Data analysis was performed using Upstate Beadview software. […] The IC50 were performed using GraphPad Prism v5.00. The data values represent the mean±SEM (standard error of the mean) of n (number of experiments in duplicate).

A further assay concerns IL-6. Nature of the assay: LPS-stimulated hPBMC cytokine production: IL-6. Format: cell-based. The settings on record: Homo sapiens; LPS 1 ng/ml, 18 hours. The procedure: as §1, §2, §3, §4
Setting [2] is: read-out: bFGF (10 ng/mL) IC50 Values (μM), bFGF-induced proliferation.
The mark [3] stands for this setting: HGF-induced proliferation, read-out: HGF (25 ng/mL) IC50 Values.
The mark [4] stands for this setting: VEGF-induced proliferation, read-out: VEGF (25 ng/mL) IC50 Values.

The structures appear in SMILES notation. Read-outs that look alike come from different tables or passages of the source.

Consider `O=C1CC[C@H](N2Cc3c(OCc4ccc(CN5CCOCC5)cc4)cccc3C2=O)C(=O)N1` [Test compound, (S)-3-[4-(4-morphlin-4-ylmethylbenzyloxy)-1-oxo-1,3-dihydro-isoindo-2-yl]piperidine-2,6-dione], for which the “VEGF-, bFGF-, or HGF-induced HUVEC proliferation” value in assay [1] was “did not inhibit”. Besides, the IC50 was 52 µM in assay [1] (setting [2]); 51 µM in assay [1] (setting [3]); greater than 100 µM in assay [1] (setting [4]); 0.00046 µM in the assay on IL-1β; 0.0021 µM in the assay with MDC; greater than 10 µM with MIP-1β. Further, the IC50 in the assay on IL-6 came out at 0.0038 µM. In addition, in assay [1] (VEGF-treated HUVECs), the “concentrations with significant enhancement of proliferation” value was in the range of 1 to 10 µM. Moreover, the “IL-10 Mean % of Control” value with IL-10 is 379 % of control.

Turning to `O=C1CC[C@@H](N2Cc3c(OCc4ccc(CN5CCOCC5)cc4)cccc3C2=O)C(=O)N1` [R-enantiomer, (R)-3-[4-(4-morphlin-4-ylmethylbenzyloxy)-1-oxo-1,3-dihydro-isoindo-2-yl]piperidine-2,6-dione], the “VEGF-, bFGF-, or HGF-induced HUVEC proliferation” value in assay [1] is on record as “did not inhibit”. For the same compound, the IC50 in assay [1] (setting [2]) was 76 µM; in assay [1] (setting [3]) it was 38 µM; in assay [1] (setting [4]) it was greater than 100 µM; with IL-1β it was 0.0062 µM; in the assay on MDC it was 0.012 µM; in the assay on MIP-1β, greater than 10 µM. For the same compound, the IC50 with IL-6 was 0.083 µM. Besides, the “IL-10 Mean % of Control” value in the assay on IL-10 is given as 442 % of control.

As for `O=C1CCC(N2Cc3c(OCc4ccc(CN5CCOCC5)cc4)cccc3C2=O)C(=O)N1` (racemic) [Racemate, 3-[4-(4-morphlin-4-ylmethylbenzyloxy)-1-oxo-1,3-dihydro-isoindo-2-yl]piperidine-2,6-dione], in assay [1], the “VEGF-, bFGF-, or HGF-induced HUVEC proliferation” value is “did not inhibit”. Besides, the IC50 in assay [1] (setting [2]) was 99 µM; in assay [1] (setting [3]) it was 24 µM; in assay [1] (setting [4]), greater than 100 µM; with IL-1β, 0.00085 µM; with MDC, 0.0026 µM; in the assay with MIP-1β, greater than 10 µM. In the assay on IL-6, this compound returned an IC50 of 0.01 µM. Further, in assay [1] (bFGF-treated HUVECs), the “concentrations with significant enhancement of proliferation” value was 0.01 to 1 µM. Also, the “IL-10 Mean % of Control” value in the assay on IL-10 is listed as 371 % of control.
